Experiments:
[1] = system: MCP-1 induced migration of THP-1 cells; assay: Inhibition of MCP-1 induced leukocyte migration (transwell, THP-1 cells); format: cell-based; conditions: Homo sapiens, MCP-1 25 ng/ml, 2 hours 37° C., read-out: ED50 (concentration required to reduce MCP-1-induced migration by 50%)
Method: A. Inhibition of MCP-1 Induced Leukocyte Migration
In principle, this assay consists of two chambers separated by a porous membrane. The chemoattractant is placed in the lower compartment and the cells are placed in the upper compartment. After incubation for a period at 37° C. the cells move towards the chemoattractant, and the number of cells in the lower compartment is proportional to the chemoattractant activity (relative to a series of controls).
This assay can be used with a range of different leukocyte populations. For example, freshly prepared human peripheral blood leukocytes may used. Alternatively, leukocyte subsets may be prepared, including polymorphonuclear cells or lymphocytes or monocytes using methods well known to those skilled in the art such as density gradient centrifugation or magnetic bead separations. Alternatively, immortal cell lines which have been extensively validated as models of human peripheral blood leukocytes may be used, including, but not limited to THP-1 cells as a model of monocytes or Jurkat cells as model of naive T cells.
The transwell migration systems are manufactured by Neuroprobe, Gaithersburg, Md., USA.
The plates used are ChemoTx plates (Neuroprobe 101-8) and 30 μl clear plates (Neuroprobe MP30).
Geys' Balanced Salt Solution is purchased from Sigma (Sigma G-9779).
Fatty acid-free BSA is purchased from Sigma (Sigma A-8806). […]

[2] = system: MCP-1 induced migration of THP-1 cells; conditions: cited from earlier work
[3] = system: endotoxin-stimulated TNF-alpha levels; assay: Murine sub-lethal endotoxemia model, serum TNF-α by ELISA; format: in vivo, mice
Method: FIG. 2 is a graph showing the results of a murine sub-lethal endotoxemia test.
The anti-inflammatory efficacy of an exemplar compound according to the present invention was tested using the murine sub-lethal endotoxemia model.
Briefly, the method is as follows. Female CD1 mice (28-30g, ˜7 weeks of age) were dosed with their respective treatment in sterile filtered 1% CMC by oral gavage in a dose volume of 10 ml/kg one hour prior to an endotoxin (LPS) challenge. The endotoxin challenge was injected by the intraperitoneal route containing 675,000 Endotoxin Units of LPS (E. coli strain 0111:B4 (Code L4130)) in endotoxin free PBS. Mice were left for two hours and then exsanguinated under terminal anaesthesia and blood was taken. Serum was prepared from this terminal bleed and aliquoted and stored at −20° C. Serum TNF-α levels were measured by ELISA per manufacturers instructions (R and D Systems).
Eight animals were treated in each group, and the data for the animal with the highest and lowest TNF-α level in each group were eliminated, and the mean and standard error reported for the remaining six animals.

[4] = cited from earlier work
[5] = system: chemokine-induced migration; conditions: cited from earlier work
[6] = 37° C.; cited from earlier work

Row | melting point | Compound | also measured
1 | 98 to 99 °C | CCCCCCCCc1ccc(S(=O)(=O)N[C@H]2CCCNC2=O)cc1 [Example 19, (S)-3-(4′-Octylbenzenesulfonylamino)-tetrahydropyridin-2-one] | –
2 | 153 to 155 °C | O=C1NCCC[C@@H]1NS(=O)(=O)c1ccc(F)c(F)c1 [Example 10, (S)-3,4-difluoro-N-(2-oxopiperidin-3-yl)benzenesulfonamide] | –
3 | 152 to 153 °C | O=C1NCCC[C@@H]1NS(=O)(=O)c1c(F)cccc1F [Example 9, (S)-2,6-difluoro-N-(2-oxopiperidin-3-yl)benzenesulfonamide] | –
4 | 170 to 174 °C | O=C1NCCC[C@@H]1NS(=O)(=O)c1cc(F)cc(F)c1 [Example 11, (S)-3,5-difluoro-N-(2-oxopiperidin-3-yl)benzenesulfonamide] | –
5 | 183 to 185 °C | O=C1NCCC[C@@H]1NS(=O)(=O)c1cc(F)ccc1F [Example 8, (S)-2,5-difluoro-N-(2-oxopiperidin-3-yl)benzenesulfonamide] | –
6 | 155 to 156 °C | CC(C)(C)c1ccc(S(=O)(=O)N[C@H]2CCCNC2=O)cc1 [Example 16, (S)-3-(4′-tert-Butylbenzenesulfonylamino)-tetrahydropyridin-2-one] | –

The remaining lines, values behind:

Row | Compound | melting point | also measured
7 | O=C1NCCC[C@@H]1NS(=O)(=O)c1ccccc1C(F)(F)F [Example 6, (S)—N-(2-oxopiperidin-3-yl)-2-(trifluoromethyl)benzenesulfonamide] | 161 to 163 °C | –
8 | O=C1NCCC[C@@H]1NS(=O)(=O)c1ccc(F)cc1 [Example 1, (S)-4-Fluoro-N-(2-oxopiperidin-3-yl)benzenesulfonamide] | 153 to 156 °C | –
9 | O=C1NCCC[C@@H]1NS(=O)(=O)c1ccccc1F [Example 3, (S)-2-Fluoro-N-(2-oxopiperidin-3-yl)benzenesulfonamide] | 180 to 183 °C | –
10 | Cc1ccc(S(=O)(=O)NC2CCCNC2=O)cc1 (stereo not drawn) [Reference Example 1, 3-(4′-Methylbenzenesulfonylamino)tetrahydropyridin-2-one] | – | EC50 [1]: ≤ 100 nM
11 | CCCCCCCCCC(C)(C)CC(=O)NC1CCCCNC1=O (stereo not drawn) [3′3′-dimethyldodecanoyl-3-aminocaprolactam] | – | potency as a BSCI relative to the linear alkyl analogs [2]: no more potent
12 | CCCCCCCCCCC(C)(C)C(=O)NC1CCCCNC1=O (stereo not drawn) [2′2′-dimethyldodecenanoyl-3-aminocaprolactam] | – | potency as a BSCI relative to dodecanoyl-3-aminocaprolactam ([2]; MCP-1 induced THP-1 cell migration assay): 10 fold
13 | O=C1CCC(N2C(=O)c3ccccc3C2=O)C(=O)N1 (stereo not drawn) [thalidomide] | – | anti-inflammatory effect on TNF-α levels in vivo compared with the compound of Example 4 ([3]; thalidomide 10 mg/kg p.o., positive control, maximally effective dose): quantitatively similar
14 | O=C1NCCC[C@@H]1NS(=O)(=O)c1cccc(F)c1 [Example 2, (S)-3-Fluoro-N-(2-oxopiperidin-3-yl)benzenesulfonamide] | 159 to 160 °C | –
15 | Cc1ccc(S(=O)(=O)NC2CCCCNC2=O)cc1 (stereo not drawn) [Reference Example 2, 3-(4′-Methylbenzenesulfonylamino)azepan-2-one] | – | EC50 [1]: ≤ 100 nM
16 | O=C1NCCC[C@@H]1NS(=O)(=O)c1ccc(C(F)(F)F)cc1 [Example 4, (S)—N-(2-Oxopiperidin-3-yl)-4-(trifluoromethyl)-benzenesulfonamide] | – | inhibition of endotoxin-stimulated TNF-alpha levels ([3]; female CD1 mice, single dose 10 mg/kg p.o. one hour prior to LPS, serum 2 hours after LPS): 60-70%
17 | O=C1NCCC[C@@H]1NS(=O)(=O)c1cccc(C(F)(F)F)c1 [Example 5, (S)—N-(2-Oxopiperidin-3-yl)-3-(trifluoromethyl)benzenesulfonamide] | 158 to 160 °C | –
18 | O=C1NCCC[C@@H]1NS(=O)(=O)c1ccc(F)cc1F [Example 7, (S)-2,4-difluoro-N-(2-oxopiperidin-3-yl)benzenesulfonamide] | 162 to 163 °C | –
19 | c(DCys-DGln-DIle-DTrp-DLys-DGIn-DLys-DPro-DAsp-DLeu-DCys)-NH2 [NR58-3.14.3] | – | half-life of clearance from blood plasma ([4]; after intravenous injection): less than 30 minutes; oral bioavailability ([4]; in vivo, po): not orally bioavailable
20 | O=C1NCCCC[C@@H]1NC(=O)C12CC3CC(CC(C3)C1)C2 [(S)-3-(adamantane-1-carbonyl)aminocaprolactam] | – | anti-inflammatory effect in vivo compared with the compound of Example 4 ([3]; 1 mg/kg p.o.): similar
21 | CCCCCCCCCC=CC(=O)NC1CCCCNC1=O (stereo not drawn) [dodec-2′,3′-enoyl-3-aminocaprolactam] | – | potency as BSCI relative to compounds with corresponding saturated alkyl tail groups [5]: markedly lower potency
22 | (S)-3-(undec-10-enoyl)-tetrahydropyridin-2-one | – | potency compared with the parental molecule (S)-3-(undec-10-enoyl)-aminoglutarimide [5]: considerably reduced potency; stability in human serum (completely stable for) [6]: at least 7 days

Source: US20130203734A1, “ANTI-INFLAMMATORY AGENTS” (priority 2010, published 2013)
